Where “and” joins values, the source holds several entries; their conditions need not be identical. Equal entries are not always repeated.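 These data come from cells grown in 96-well plates and exposed to compound for 48 hours at five concentrations. GI50: concentration for 50% inhibition of growth. TGI denotes the concentration required for complete inhibition of growth.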
What was measured:
Assay in all cases: NCI anticancer screen, dose series, 48 h
SK-MEL-5 melanoma = test system: SK-MEL-5 melanoma
M14 melanoma = test system: M14 melanoma
MALME-3M melanoma = test system: MALME-3M melanoma
SK-MEL-2 melanoma = test system: SK-MEL-2 melanoma
SNB-78 CNS = test system: SNB-78 CNS
IGROV1 ovarian = test system: IGROV1 ovarian
DMS 273 small cell lung = test system: DMS 273 small cell lung
ACHN renal = test system: ACHN renal
HOP-62 NSCLC = test system: HOP-62 NSCLC
A549 NSCLC = test system: A549 NSCLC

Structure (SMILES)	TGI (SK-MEL-5 melanoma) [µM]	GI50 (M14 melanoma) [nM]	GI50 (MALME-3M melanoma) [nM]	TGI (MALME-3M melanoma)	GI50 (SK-MEL-2 melanoma) [nM]	TGI (SK-MEL-2 melanoma)	GI50 (SNB-78 CNS) [nM]	TGI (SNB-78 CNS)	GI50 (IGROV1 ovarian) [nM]	GI50 (DMS 273 small cell lung) [nM]	TGI (DMS 273 small cell lung)	GI50 (ACHN renal) [nM]	TGI (ACHN renal)	GI50 (HOP-62 NSCLC) [nM]	TGI (HOP-62 NSCLC)	TGI (M14 melanoma) [µM]	TGI (A549 NSCLC) [µM]	TGI (IGROV1 ovarian) [µM]	GI50 (SK-MEL-5 melanoma) [nM]	GI50 (A549 NSCLC) [µM]
Cc1cc(-c2c(F)cc3c4nn([C@H]5CC[C@@H](N(C)C)CC5)c(=O)c-4cn(C4CC4)c3c2F)cc(C)n1	0.982	53.9	31.8	0.208 µM and 1.67 µM	73.5	0.256 µM and 1.94 µM	669	11.5 µM and 6.93 µM	278	30	0.0372 µM and 0.172 µM	21.9	0.171 µM and 0.928 µM	18	0.0784 µM and 0.455 µM	–	–	–	–	–
CCOC(=O)c1cc(-c2ccc(-c3cc(C(=O)OCC)c(C#N)c(N)c3C#N)cc2)c(C#N)c(N)c1C#N	–	–	–	> 100 µM	–	> 100 µM	–	> 100 µM	–	–	> 100 µM	–	> 100 µM	–	> 100 µM	> 100	> 100	> 100	–	–
COc1ccc(C2=Nc3ccccc3SC(C)C2)cc1OC (stereo unspecified)	37	–	–	42.8 µM	–	72.2 µM	–	66.7 µM	–	–	34.8 µM	–	58.1 µM	–	–	33	–	29.7	–	–
Cc1c(C(=O)O)n(C)c(=O)n(C)c1=O	> 100	–	–	> 100 µM	–	> 100 µM	–	–	–	–	> 100 µM	–	> 100 µM	–	> 100 µM	> 100	> 100	> 100	–	–
C/C(CN1C(=O)c2ccccc2C1=O)=N\NS(=O)(=O)c1cccc(C(=O)O)c1	> 100	–	–	> 100 µM	–	> 100 µM	–	> 100 µM	–	–	> 100 µM	–	> 100 µM	–	> 100 µM	> 100	> 100	> 100	–	–
Cc1ccc(N=C[N-]c2ccc(C)cc2)cc1.Cc1ccc(N=C[N-]c2ccc(C)cc2)cc1.O=C([O-])C(F)(F)F.O=C([O-])C(F)(F)F.[OH3+].[OH3+].[Rh+2].[Rh+2]	> 100	26200	28000	56.1 µM	32600	69.8 µM	53300	> 100 µM	26600	80200	> 100 µM	44700	> 100 µM	> 100000	> 100 µM	70.3	> 100	72.2	30700	> 100
Cc1ccc(C)c(N2C(=O)C(=O)C(c3nc4ccccc4o3)C(=O)C2=O)c1	> 100	–	–	> 100 µM	–	> 100 µM	–	> 100 µM	–	–	> 100 µM	–	> 100 µM	–	> 100 µM	> 100	> 100	> 100	–	–
COC1CC(O)C(OC(=O)c2ccccc2)C(C)O1 (stereo unspecified)	> 100	–	–	> 100 µM	–	–	–	> 100 µM	–	–	> 100 µM	–	–	–	> 100 µM	> 100	> 100	> 100	–	–
CCC[CH2][Sn]([CH2]CCC)([S]C#N)[S]C#N	1.76	1490	753	2.27 µM	457	1.68 µM	663	2.51 µM	1270	1630	4.21 µM	1240	2.48 µM	1980	3.58 µM	3.48	11.9	2.78	483	3.78
COc1ccc2oc3c(OC)c(OC)c(OC)cc3c(=O)c2c1	> 100	–	–	> 100 µM	–	> 100 µM	–	> 100 µM	–	–	> 100 µM	–	> 100 µM	–	> 100 µM	> 100	> 100	> 100	–	–
COC(=O)Nc1nc2ccccc2[nH]1	> 100	–	–	> 100 µM	–	> 100 µM	–	–	–	–	–	–	> 100 µM	–	> 100 µM	> 100	> 100	> 100	–	–
CC(C)OC(=S)Nc1ccc(Cl)c(/C=N/OC(C)(C)C)c1	31.8	–	–	34.2 µM	–	37.5 µM	–	–	–	–	–	–	28.7 µM	–	41.4 µM	39.9	40	36.6	–	–
O=C1/C(=C/c2ccc(F)cc2)CN(C(=O)CCN2CCC(=NO)CC2)C/C1=C\c1ccc(F)cc1	3.26	1170	1860	4.89 µM	4070	12.4 µM	–	–	1430	–	–	1080	2.86 µM	2340	6.02 µM	3.69	11.2	3.42	1730	4.09
C#Cc1cccc(Nc2nc(Cl)nc3cc(NC(=O)CCl)ccc23)c1	3.36	764	1000	2.25 µM	1160	3.6 µM	–	–	500	–	–	1480	4.63 µM	1990	5.32 µM	2.64	8.51	1.12	1040	3.66
Cn1cc(C2=C(c3c[nH]c4ccccc34)C(=O)NC2=O)c2ccccc21	3.1	1240	143	> 25 µM	1090	> 25 µM	–	–	975	–	–	1730	> 25 µM	585	> 25 µM	> 25	> 25	> 25	859	1.66
O=C(NCCCc1cn[nH]c1)c1ccc(-c2ccncc2)c(C#Cc2ccc(F)cc2)c1	16.6	< 10	10200	54.2 µM	11500	> 74.1 µM	–	–	28.2	–	–	6910	> 100 µM	5490	> 64.9 µM	> 54.7	> 100	> 100	2300	0.481
C1CCCCc2nc3c(nc2CCC1)c1nc2c(nc1c1nc4c(nc31)CCCCCCCC4)CCCCCCCC2	–	–	–	> 100 µM	–	> 100 µM	–	> 100 µM	–	–	–	–	> 100 µM	–	> 100 µM	> 100	> 100	> 100	–	–
Cc1ccc2nc(NC(=O)C(=O)C(C#N)c3ccc(Cl)cc3)sc2c1 (stereo unspecified)	–	–	–	> 50 µM	–	> 50 µM	–	> 50 µM	–	–	> 50 µM	–	> 50 µM	–	> 50 µM	> 50	> 50	> 50	–	–
